Results published in patent US20260132160A1, “IRON REPLACEMENT TREATMENTS” (The General Hospital Corporation, priority 2022, published 2026).

Columns and labels:
[1] = Stability of Fe-BBG against trans-chelation by endogenous chelators (UV-vis); format: physicochemical
Source text: In other words, the ligand BBG binds to Fe^3+ with an estimated 230±40 times higher affinity than citrate.

holo-transferrin = holo-transferrin (Homo sapiens, UniProt P02787); assay: Fe removal from holo-transferrin by BBG ligand; format: biochemical; settings: 24 h, pH 7.4, 37° C.
Description: Solutions of 20 μM holo-transferrin and BBG of concentration ranging between 0 and 100 μM (0-5 molar equivalents) were incubated for 24 h in pH 7.4 50 mM HEPES buffer supplemented with 25 mM carbonate at 37° C., and Fe removal from transferrin was monitored using fluorescence spectroscopy (excitation wavelength: 280 nm).
In another experiment, […] holo-transferrin and was incubated with 100 μM BBG (10 molar equivalents) for 24 h in pH 7.4 50 mM HEPES buffer supplemented with 25 mM carbonate at 37° C., and Fe removal monitored by urea gel electrophoresis assay, FIG. 11B.

[2] = pH-potentiometric titration, Cu2+ complex; format: physicochemical; settings: pH 7.4
Description: (§1) The aqueous solutions thermodynamics of BBG and its corresponding complexes of Fe^3+, Cu^2+, and Zn^2+ were interrogated through pH-potentiometric titration of BBG (L) in the absence and presence of 1 molar equivalent of Fe^3+, Cu^2+, or Zn^2+, FIG. 13A.
(§2) pH-potentiometric measurements were performed using an Orion ROSS Ultra pH electrode and temperature-controlled reaction vessel held at 310 K. A standardized solution of 0.10 M NaOH was used as the titrant. The electrode was calibrated prior to each titration by titrating a standardized HCl(aq) solution at ionic strength 0.10 using NaCl as the inert electrolyte with the standardized NaOH titrant. A working slope and intercept were generated by plotting mV as a function of calculated pH, which enabled direct conversion of electrode readings to [H^+] during sample titrations. pH values recorded during the titrations refers to hydrogen ion concentration. All titration samples were prepared in solutions of 0.10 M NaCl in distilled, deionized water. Ligand solutions were prepared by dissolving a weighed quantity into water and concentration was determined from the effective weight of the ligand and confirmed by the quantity of NaOH required to consume 1 molar equivalent of ligand proton. […]

[3] = pH-potentiometric titration, Zn2+ complex; format: physicochemical; settings: pH 7.4
Description: as §1, §2

[4] = Human blood plasma incubation, ultrafiltration and ICP-MS of metals; settings: 0-5 mM BBG, 1 h, 37° C., 10 kDa cutoff
Description: The plasma concentrate and ultrafiltrate were assayed for concentrations of Cu and Zn, as well as Mn, Mg, and Ca by ICP-MS.
To illustrate this point, human blood plasma samples containing between 0-5 mM BBG were incubated for 1 h at 37° C. before separation of the low-molecular weight solution components by ultrafiltration through a 10 kDa molecular weight cutoff filter. The plasma concentrate and ultrafiltrate were assayed for concentrations of Cu and Zn, as well as Mn, Mg, and Ca by ICP-MS, FIG. 14.

[5] = cited from earlier work

holo-transferrin, sequence (P02787 20-698): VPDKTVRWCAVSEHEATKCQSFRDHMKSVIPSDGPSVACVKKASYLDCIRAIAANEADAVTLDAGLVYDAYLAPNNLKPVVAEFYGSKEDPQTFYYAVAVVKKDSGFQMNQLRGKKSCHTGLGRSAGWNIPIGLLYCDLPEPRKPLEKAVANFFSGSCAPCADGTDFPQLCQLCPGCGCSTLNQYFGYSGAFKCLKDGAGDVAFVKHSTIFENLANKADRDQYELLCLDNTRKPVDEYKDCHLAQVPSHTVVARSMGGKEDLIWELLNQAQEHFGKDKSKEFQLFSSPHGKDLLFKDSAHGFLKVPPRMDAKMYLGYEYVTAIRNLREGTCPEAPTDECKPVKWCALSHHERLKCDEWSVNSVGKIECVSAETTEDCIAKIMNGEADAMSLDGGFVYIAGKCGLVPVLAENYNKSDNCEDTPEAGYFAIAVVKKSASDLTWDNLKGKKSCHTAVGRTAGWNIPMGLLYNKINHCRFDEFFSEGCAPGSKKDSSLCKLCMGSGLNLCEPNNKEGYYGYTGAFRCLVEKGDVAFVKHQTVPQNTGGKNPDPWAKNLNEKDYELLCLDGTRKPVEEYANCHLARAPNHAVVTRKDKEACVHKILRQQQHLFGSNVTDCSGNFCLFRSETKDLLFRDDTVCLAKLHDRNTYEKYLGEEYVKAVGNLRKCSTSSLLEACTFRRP

Fe^3+ affinity relative to endogenous chelators [1] | Fe^3+ affinity relative to citrate ([1]; estimated from citrate challenge) | Fe removal from transferrin (urea gel electrophoresis) (holo-transferrin; 10 μM holo-transferrin, 100 μM BBG (10 molar equivalents)) | Fe removal from transferrin (fluorescence spectroscopy) (holo-transferrin; 20 μM holo-transferrin, 0-100 μM BBG) | greater stability of Fe^3+ binding than Cu^2+ [2] | greater stability of Fe^3+ binding than Zn^2+ [3] | metal ion content remaining in the plasma concentrate [4] | Compound | log Kcond at pH 7.4 for Fe^3+, first binding site [5] | log Kcond at pH 7.4 for Fe^3+, second binding site [5]
substantially higher affinity | 230±40 times | No evidence of Fe removal | No evidence of Fe removal | 9 orders of magnitude | 15 orders of magnitude | little effect | O=C(O)CC[C@@H](C(=O)O)N(Cc1ccccc1O)Cc1ccccc1O [BBG, N,N-bis(2-hydroxybenzyl)-L-glutamic acid] | – | –
– | – | – | – | – | – | – | transferrin: the iron carrier protein transferrin | about 20.7 | ~19.4
